Measured values reported in patent publication US20240018145A1, “[…]-DEPENDENT EN[…] TREATING OR […]” (priority 2020, published 2024).

Test system: FLU A (PR/8/34)
Assay: Flu A Neuraminidase Antiviral Assay
Type: cell-based
Conditions: not given

Compound | EC50
CCCC1CCC2N(CC)C(=O)c3c(O)c(=O)ccn3N2C1c1ccccc1F (single isomer, unassigned) [Compound 96B, 5-ethyl-1-(2-fluorophenyl)-7-hydroxy-2-propyl-1,2,3,4,4a,5-hexahydrodipyrido[1,2-b:2′,1′-f][1,2,4]triazine-6,8-dione] | 2.2 nM
CCN1C(=O)c2c(O)c(=O)ccn2N2C(c3ccccc3)C(CC3(C(F)(F)F)CC3)CCC12 (single isomer, unassigned) [Compound 97A, 5-ethyl-7-hydroxy-1-phenyl-2-((1-(trifluoromethyl)cyclopropyl)methyl)-1,2,3,4,4a,5-hexahydrodipyrido[1,2-b:2′,1′-f][1,2,4]triazine-6,8-dione] | > 810 nM
CCN1C(=O)c2c(O)c(=O)ccn2N2C(c3ccccc3)C(CC3(C(F)(F)F)CC3)CCC12 (single isomer, unassigned) [Compound 97B, 5-ethyl-7-hydroxy-1-phenyl-2-((1-(trifluoromethyl)cyclopropyl)methyl)-1,2,3,4,4a,5-hexahydrodipyrido[1,2-b:2′,1′-f][1,2,4]triazine-6,8-dione] | 24.2 nM
O=C1c2c(O)c(=O)ccn2N2C(c3ccccc3)C(CCC(F)(F)F)CCC2N1CC1CC1 (single isomer, unassigned) [Compound 100A, 5-(cyclopropylmethyl)-7-hydroxy-1-phenyl-2-(3,3,3-trifluoropropyl)-1,2,3,4,4a,5-hexahydrodipyrido[1,2-b:2′,1′-f][1,2,4]triazine-6,8-dione] | > 810 nM
O=C1c2c(O)c(=O)ccn2N2C(c3ccccc3)C(CCC(F)(F)F)CCC2N1CC1CC1 (single isomer, unassigned) [Compound 100B, 5-(cyclopropylmethyl)-7-hydroxy-1-phenyl-2-(3,3,3-trifluoropropyl)-1,2,3,4,4a,5-hexahydrodipyrido[1,2-b:2′,1′-f][1,2,4]triazine-6,8-dione] | 5.4 nM
CCN1C(=O)c2c(O)c(=O)ccn2N2C(c3ccccc3F)C(CCC(F)F)CCC12 (single isomer, unassigned) [Compound 101A, 2-(3,3-difluoropropyl)-5-ethyl-1-(2-fluorophenyl)-7-hydroxy-1,2,3,4,4a,5-hexahydrodipyrido[1,2-b:2′,1′-f][1,2,4]triazine-6,8-dione] | 148 nM
CCN1C(=O)c2c(O)c(=O)ccn2N2C(c3ccccc3F)C(CCC(F)F)CCC12 (single isomer, unassigned) [Compound 101B, 2-(3,3-difluoropropyl)-5-ethyl-1-(2-fluorophenyl)-7-hydroxy-1,2,3,4,4a,5-hexahydrodipyrido[1,2-b:2′,1′-f][1,2,4]triazine-6,8-dione] | 5.6 nM
CCN1C(=O)c2c(O)c(=O)ccn2N2C(c3ccccc3C)C(CCC(F)F)CCC12 (single isomer, unassigned) [Compound 102A, 2-(3,3-difluoropropyl)-5-ethyl-7-hydroxy-1-(o-tolyl)-1,2,3,4,4a,5-hexahydrodipyrido[1,2-b:2′,1′-f][1,2,4]triazine-6,8-dione] | 2.9 nM
CCN1C(=O)c2c(O)c(=O)ccn2N2C(c3ccccc3C)C(CCC(F)F)CCC12 (single isomer, unassigned) [Compound 102B, 2-(3,3-difluoropropyl)-5-ethyl-7-hydroxy-1-(o-tolyl)-1,2,3,4,4a,5-hexahydrodipyrido[1,2-b:2′,1′-f][1,2,4]triazine-6,8-dione] | 36.5 nM
Cc1ccccc1C1C(CCC(F)F)CCC2N(C)C(=O)c3c(O)c(=O)ccn3N12 (single isomer, unassigned) [Compound 103A, 2-(3,3-difluoropropyl)-7-hydroxy-5-methyl-1-(o-tolyl)-1,2,3,4,4a,5-hexahydrodipyrido[1,2-b:2′,1′-f][1,2,4]triazine-6,8-dione] | > 810 nM
Cc1ccccc1C1C(CCC(F)F)CCC2N(C)C(=O)c3c(O)c(=O)ccn3N12 (single isomer, unassigned) [Compound 103B, 2-(3,3-difluoropropyl)-7-hydroxy-5-methyl-1-(o-tolyl)-1,2,3,4,4a,5-hexahydrodipyrido[1,2-b:2′,1′-f][1,2,4]triazine-6,8-dione] | 5.3 nM
CCN1C(=O)c2c(O)c(=O)ccn2N2C(c3ccccc3)C(C3(C(F)(F)F)CC3)CCC12 (single isomer, unassigned) [Compound 104A, 5-ethyl-7-hydroxy-1-phenyl-2-(1-(trifluoromethyl)cyclopropyl)-1,2,3,4,4a,5-hexahydrodipyrido[1,2-b:2′,1′-f][1,2,4]triazine-6,8-dione] | 8 nM
CCN1C(=O)c2c(O)c(=O)ccn2N2C(c3ccccc3)C(C3(C(F)(F)F)CC3)CCC12 (single isomer, unassigned) [Compound 104B, 5-ethyl-7-hydroxy-1-phenyl-2-(1-(trifluoromethyl)cyclopropyl)-1,2,3,4,4a,5-hexahydrodipyrido[1,2-b:2′,1′-f][1,2,4]triazine-6,8-dione] | > 810 nM
CN1C(=O)c2c(O)c(=O)ccn2N2C(c3ccccc3)C(C3CC3(F)F)CCC12 (single isomer, unassigned) [Compound 105B, 2-(2,2-difluorocyclopropyl)-7-hydroxy-5-methyl-1-phenyl-1,2,3,4,4a,5-hexahydrodipyrido[1,2-b:2′,1′-f][1,2,4]triazine-6,8-dione] | > 810 nM
CCN1C(=O)c2c(O)c(=O)ccn2N2C(c3ccccc3Br)C(CC(F)(F)F)CCC12 (single isomer, unassigned) [Compound 106A, 1-(2-bromophenyl)-5-ethyl-7-hydroxy-2-(2,2,2-trifluoroethyl)-1,2,3,4,4a,5-hexahydrodipyrido[1,2-b:2′,1′-f][1,2,4]triazine-6,8-dione] | 6.4 nM
CCN1C(=O)c2c(O)c(=O)ccn2N2C(c3ccccc3Br)C(CC(F)(F)F)CCC12 (single isomer, unassigned) [Compound 106B, 1-(2-bromophenyl)-5-ethyl-7-hydroxy-2-(2,2,2-trifluoroethyl)-1,2,3,4,4a,5-hexahydrodipyrido[1,2-b:2′,1′-f][1,2,4]triazine-6,8-dione] | 87.8 nM
CN1C(=O)c2c(O)c(=O)ccn2N2C(c3ccccc3C3CC3)C(CC(F)(F)F)CCC12 (single isomer, unassigned) [Compound 107A, 1-(2-cyclopropylphenyl)-7-hydroxy-5-methyl-2-(2,2,2-trifluoroethyl)-1,2,3,4,4a,5-hexahydrodipyrido[1,2-b:2′,1′-f][1,2,4]triazine-6,8-dione] | 4800 nM
CN1C(=O)c2c(O)c(=O)ccn2N2C(c3ccccc3C3CC3)C(CC(F)(F)F)CCC12 (single isomer, unassigned) [Compound 107B, 1-(2-cyclopropylphenyl)-7-hydroxy-5-methyl-2-(2,2,2-trifluoroethyl)-1,2,3,4,4a,5-hexahydrodipyrido[1,2-b:2′,1′-f][1,2,4]triazine-6,8-dione] | 14.4 nM
CN1C(=O)c2c(O)c(=O)ccn2N2C(c3ccccc3)C(C3(C(F)(F)F)CC3)CCC12 (single isomer, unassigned) [Compound 108A, 7-hydroxy-5-methyl-1-phenyl-2-(1-(trifluoromethyl)cyclopropyl)-1,2,3,4,4a,5-hexahydrodipyrido[1,2-b:2′,1′-f][1,2,4]triazine-6,8-dione] | 5420 nM
CN1C(=O)c2c(O)c(=O)ccn2N2C(c3ccccc3)C(C3(C(F)(F)F)CC3)CCC12 (single isomer, unassigned) [Compound 108B, 7-hydroxy-5-methyl-1-phenyl-2-(1-(trifluoromethyl)cyclopropyl)-1,2,3,4,4a,5-hexahydrodipyrido[1,2-b:2′,1′-f][1,2,4]triazine-6,8-dione] | 9.4 nM
CC(C1CCC2N(C)C(=O)c3c(O)c(=O)ccn3N2C1c1ccccc1)C(F)(F)F (single isomer, unassigned) [Compound 109A, 7-hydroxy-5-methyl-1-phenyl-2-(1,1,1-trifluoropropan-2-yl)-1,2,3,4,4a,5-hexahydrodipyrido[1,2-b:2′,1′-f][1,2,4]triazine-6,8-dione] | 803 nM
CC(C1CCC2N(C)C(=O)c3c(O)c(=O)ccn3N2C1c1ccccc1)C(F)(F)F (single isomer, unassigned) [Compound 109B, 7-hydroxy-5-methyl-1-phenyl-2-(1,1,1-trifluoropropan-2-yl)-1,2,3,4,4a,5-hexahydrodipyrido[1,2-b:2′,1′-f][1,2,4]triazine-6,8-dione] | 5.4 nM
CCN1C(=O)c2c(O)c(=O)ccn2N2C(c3ccccc3)C(CCC(F)F)CCC12 (single isomer, unassigned) [Compound 110A, 2-(3,3-difluoropropyl)-5-ethyl-7-hydroxy-1-phenyl-1,2,3,4,4a,5-hexahydrodipyrido[1,2-b:2′,1′-f][1,2,4]triazine-6,8-dione] | 1120 nM
CCN1C(=O)c2c(O)c(=O)ccn2N2C(c3ccccc3)C(CCC(F)F)CCC12 (single isomer, unassigned) [Compound 110B, 2-(3,3-difluoropropyl)-5-ethyl-7-hydroxy-1-phenyl-1,2,3,4,4a,5-hexahydrodipyrido[1,2-b:2′,1′-f][1,2,4]triazine-6,8-dione] | 5.5 nM
CN1C(=O)c2c(O)c(=O)ccn2N2C(c3ccccc3)C(CC(F)(F)F)CCC12C (single isomer, unassigned) [Compound 111A, 7-hydroxy-4a,5-dimethyl-1-phenyl-2-(2,2,2-trifluoroethyl)-1,2,3,4,4a,5-hexahydrodipyrido[1,2-b:2′,1′-f][1,2,4]triazine-6,8-dione] | > 8100 nM
CN1C(=O)c2c(O)c(=O)ccn2N2C(c3ccccc3)C(CC(F)(F)F)CCC12C (single isomer, unassigned) [Compound 111B, 7-hydroxy-4a,5-dimethyl-1-phenyl-2-(2,2,2-trifluoroethyl)-1,2,3,4,4a,5-hexahydrodipyrido[1,2-b:2′,1′-f][1,2,4]triazine-6,8-dione] | 3.3 nM

Same assay, conditions: MDCK, 48 h

Compound | EC50
CN1C(=O)c2c(O)c(=O)ccn2N2C(c3ccccc3)C(C3CC3(F)F)CCC12 (single isomer, unassigned) [Compound 105A, 2-(2,2-difluorocyclopropyl)-7-hydroxy-5-methyl-1-phenyl-1,2,3,4,4a,5-hexahydrodipyrido[1,2-b:2′,1′-f][1,2,4]triazine-6,8-dione] | 413 nM
